Measured values from patent US12077503B2, “Substituted cyclic amides and their use as herbicides” (FMC CORPORATION, priority 2015, dated 2024).

What was measured:
Format in all cases: in vivo
[1] = test system: barnyardgrass (Echinochloa crus-galli); experiment: Test G Pre-Emergence Protocol; settings: evaluated after 13 days
Experimental: (§1) Seeds of corn (Zea mays), giant foxtail (Setaria faberi), barnyardgrass (Echinochloa crus-galli), ivy-leaved morning glory (Ipomoea hederacea), redroot pigweed (Amaranthus retroflexus) and velvetleaf (Abutilon theophrasti) were sown in standard soil in pots. After cultivation for one day under controlled conditions in a glasshouse (at 24/16° C., day/night; 14 hours light; 65% humidity), the plants were sprayed with an aqueous spray solution derived from the formulation of the technical active ingredient in acetone/water (50:50) solution containing 0.5% Tween 20 (polyoxyethylene sorbitan monolaurate, CAS RN 9005-64-5) to give a final dose of 15.625, 62.5 or 250 g/ha of test compound.
(§2) The test plants were then grown on under controlled conditions in a glasshouse (at 24/16° C., day/night; 14 hours light; 65% humidity) and watered twice daily. After 13 days the test was evaluated (100=total damage to plant; 0=no damage to plant). A dash (-) means no test result.

corn (Zea mays) [2] = experiment: Test G Pre-Emergence Protocol; settings: evaluated after 13 days
Experimental: as §1, §2

[3] = test system: giant foxtail (Setaria faberi); experiment: Test G Pre-Emergence Protocol; settings: evaluated after 13 days
Experimental: as §1, §2

[4] = test system: ivy-leaved morning glory (Ipomoea hederacea); experiment: Test G Pre-Emergence Protocol; settings: evaluated after 13 days
Experimental: as §1, §2

[5] = test system: redroot pigweed (Amaranthus retroflexus); experiment: Test G Pre-Emergence Protocol; settings: evaluated after 13 days
Experimental: as §1, §2

[6] = test system: velvetleaf (Abutilon theophrasti); experiment: Test G Pre-Emergence Protocol; settings: evaluated after 13 days
Experimental: as §1, §2

[7] = test system: barnyardgrass (Echinochloa crus-galli); experiment: Test G Post-Emergence Protocol
Experimental: as §1, with “8 days” for “one day”
as §2

corn (Zea mays) [8] = experiment: Test G Post-Emergence Protocol
Experimental: as §1, with “8 days” for “one day”
as §2

[9] = test system: giant foxtail (Setaria faberi); experiment: Test G Post-Emergence Protocol
Experimental: as §1, with “8 days” for “one day”
as §2

[10] = test system: ivy-leaved morning glory (Ipomoea hederacea); experiment: Test G Post-Emergence Protocol
Experimental: as §1, with “8 days” for “one day”
as §2

[11] = test system: redroot pigweed (Amaranthus retroflexus); experiment: Test G Post-Emergence Protocol
Experimental: as §1, with “8 days” for “one day”
as §2

[12] = test system: velvetleaf (Abutilon theophrasti); experiment: Test G Post-Emergence Protocol
Experimental: as §1, with “8 days” for “one day”
as §2

[13] = 62.5 g ai/ha, 100=total damage to plant, 0=no damage to plant
[14] = 15.625 g ai/ha, evaluated after 13 days (100=total damage to plant; 0=no damage to plant)
[15] = 62.5 g ai/ha, evaluated after 13 days
[16] = 250 g ai/ha, evaluated after 13 days
[17] = 62.5 g ai/ha, evaluated after 13 days, 100=total damage to plant, 0=no damage to plant
[18] = 250 g ai/ha, evaluated after 13 days, 100=total damage to plant, 0=no damage to plant

CN1CC(c2ccc(C(F)(F)F)cc2)C(C(=O)Nc2ccncc2[N+](=O)[O-])C1=O (racemic) [Compound 1568]
0: Barnyardgrass damage rating (100=total damage to plant; 0=no damage to plant) ([1]; 15.625 g ai/ha) | plant damage rating, Barnyardgrass [1, 13] | Barnyardgrass damage rating (100=total damage to plant; 0=no damage to plant) ([1]; 250 g ai/ha) | Corn damage rating (100=total damage to plant; 0=no damage to plant) (corn (Zea mays) [2]; 15.625 g ai/ha) | plant damage rating, Corn (corn (Zea mays) [2]; [13]) | Corn damage rating (100=total damage to plant; 0=no damage to plant) (corn (Zea mays) [2]; 250 g ai/ha) | Foxtail, Giant damage rating (100=total damage to plant; 0=no damage to plant) ([3]; 15.625 g ai/ha) | plant damage rating, Foxtail, Giant [3, 13] | Foxtail, Giant damage rating (100=total damage to plant; 0=no damage to plant) ([3]; 250 g ai/ha) | Morning-glory, Ivy-leaved damage rating (100=total damage to plant; 0=no damage to plant) ([4]; 15.625 g ai/ha) | plant damage rating, Morningglory, Ivy-leaved [4, 13] | Morningglory, Ivy-leaved damage rating (100=total damage to plant; 0=no damage to plant) ([4]; 250 g ai/ha) | Pigweed, Redroot damage rating (100=total damage to plant; 0=no damage to plant) ([5]; 15.625 g ai/ha) | plant damage rating, Pigweed, Redroot [5, 13] | Pigweed, Redroot damage rating (100=total damage to plant; 0=no damage to plant) ([5]; 250 g ai/ha) | Velvetleaf damage rating (100=total damage to plant; 0=no damage to plant) ([6]; 15.625 g ai/ha) | plant damage rating, Velvetleaf [6, 13] | Velvetleaf damage rating (100=total damage to plant; 0=no damage to plant) ([6]; 250 g ai/ha) | Barnyardgrass damage rating [7, 14] | Corn damage rating (corn (Zea mays) [8]; [14]) | Corn damage rating (100=total damage to plant; 0=no damage to plant) (corn (Zea mays) [8]; [15]) | Foxtail, Giant damage rating [9, 14] | Foxtail, Giant damage rating (100=total damage to plant; 0=no damage to plant) [9, 15] | damage to plant, Foxtail, Giant (100=total damage to plant; 0=no damage to plant) [9, 16] | Morningglory, Ivy-leaved damage rating [10, 14] | Morningglory, Ivy-leaved damage rating (100=total damage to plant; 0=no damage to plant) [10, 15] | damage to plant, Morningglory, Ivy-leaved (100=total damage to plant; 0=no damage to plant) [10, 16] | Pigweed, Redroot damage rating [11, 14] | Pigweed, Redroot damage rating (100=total damage to plant; 0=no damage to plant) [11, 15] | damage to plant, Pigweed, Redroot (100=total damage to plant; 0=no damage to plant) [11, 16] | Velvetleaf damage rating [12, 14] | Velvetleaf damage rating (100=total damage to plant; 0=no damage to plant) [12, 15] | damage to plant, Velvetleaf (100=total damage to plant; 0=no damage to plant) [12, 16]
20: damage to plant, Barnyardgrass (100=total damage to plant; 0=no damage to plant) [7, 16]
10: Barnyardgrass damage rating (100=total damage to plant; 0=no damage to plant) [7, 15] | damage to plant, Corn (100=total damage to plant; 0=no damage to plant) (corn (Zea mays) [8]; [16])

CN1C[C@H](c2ccc(C(F)(F)F)cc2)[C@@H](C(=O)Nc2cccc(F)n2)C1=O (racemic) [Compound 1428]
50%: pest or weed control at 15.625 g/ha ([1]; Echinochloa crus-galli, pre-emergence, 312 h, 15.625 g ai/ha, read-out: Barnyard grass damage rating (100=total damage to plant; 0=no damage to plant)) | pest or weed control at 62.5 g/ha ([9]; Setaria faberi, post-emergence, 312 h, 62.5 g ai/ha, evaluated after 13 days, read-out: Foxtail, Giant damage rating (100=total damage to plant; 0=no damage to plant))
10%: plant injury at 15.625 g/ha (corn (Zea mays) [8]; Zea mays, post-emergence, 312 h, 15.625 g ai/ha, evaluated after 13 days (100=total damage to plant; 0=no damage to plant), read-out: Corn damage rating) | plant injury at 62.5 g/ha (corn (Zea mays) [8]; Zea mays, post-emergence, 312 h, 62.5 g ai/ha, evaluated after 13 days, read-out: Corn damage rating (100=total damage to plant; 0=no damage to plant)) | pest or weed control at 15.625 g/ha ([11]; Amaranthus retroflexus, post-emergence, 312 h, 15.625 g ai/ha, evaluated after 13 days (100=total damage to plant; 0=no damage to plant), read-out: Pigweed, Redroot damage rating)
0: Pigweed, Redroot damage rating (100=total damage to plant; 0=no damage to plant) ([5]; 15.625 g ai/ha) | plant damage rating, Pigweed, Redroot [5, 13] | Velvetleaf damage rating (100=total damage to plant; 0=no damage to plant) ([6]; 15.625 g ai/ha) | plant damage rating, Velvetleaf [6, 13] | Velvetleaf damage rating (100=total damage to plant; 0=no damage to plant) ([6]; 250 g ai/ha) | Velvetleaf damage rating [12, 14] | Velvetleaf damage rating (100=total damage to plant; 0=no damage to plant) [12, 15] | damage to plant, Velvetleaf (100=total damage to plant; 0=no damage to plant) [12, 16]
70%: plant injury at 250 g/ha (corn (Zea mays) [2]; Zea mays, pre-emergence, 312 h, 250 g ai/ha, read-out: Corn damage rating (100=total damage to plant; 0=no damage to plant)) | pest or weed control at 15.625 g/ha ([3]; Setaria faberi, pre-emergence, 312 h, 15.625 g ai/ha, read-out: Foxtail, Giant damage rating (100=total damage to plant; 0=no damage to plant))
20%: plant injury at 62.5 g/ha (corn (Zea mays) [2]; Zea mays, pre-emergence, 312 h, 62.5 g ai/ha, 100=total damage to plant, 0=no damage to plant, read-out: plant damage rating, Corn)
50: Corn damage rating (100=total damage to plant; 0=no damage to plant) (corn (Zea mays) [2]; 15.625 g ai/ha)
30: Foxtail, Giant damage rating [9, 14]
80%: pest or weed control at 250 g/ha ([1]; Echinochloa crus-galli, pre-emergence, 312 h, 250 g ai/ha, read-out: Barnyardgrass damage rating (100=total damage to plant; 0=no damage to plant)) | pest or weed control at 62.5 g/ha ([3]; Setaria faberi, pre-emergence, 312 h, 62.5 g ai/ha, 100=total damage to plant, 0=no damage to plant, read-out: plant damage rating, Foxtail, Giant) | pest or weed control at 250 g/ha ([3]; Setaria faberi, pre-emergence, 312 h, 250 g ai/ha, read-out: Foxtail, Giant damage rating (100=total damage to plant; 0=no damage to plant)) | pest or weed control at 250 g/ha ([5]; Amaranthus retroflexus, pre-emergence, 312 h, 250 g ai/ha, read-out: Pigweed, Redroot damage rating (100=total damage to plant; 0=no damage to plant))
10: Morning-glory, Ivy-leaved damage rating (100=total damage to plant; 0=no damage to plant) ([4]; 15.625 g ai/ha) | plant damage rating, Morningglory, Ivy-leaved [4, 13] | Morningglory, Ivy-leaved damage rating [10, 14] | Morningglory, Ivy-leaved damage rating (100=total damage to plant; 0=no damage to plant) [10, 15] | Pigweed, Redroot damage rating (100=total damage to plant; 0=no damage to plant) [11, 15]
40%: pest or weed control at 250 g/ha ([4]; Ipomoea, pre-emergence, 312 h, 250 g ai/ha, read-out: Morningglory, Ivy-leaved damage rating (100=total damage to plant; 0=no damage to plant)) | pest or weed control at 250 g/ha ([11]; Amaranthus retroflexus, post-emergence, 312 h, 250 g ai/ha, evaluated after 13 days, read-out: damage to plant, Pigweed, Redroot (100=total damage to plant; 0=no damage to plant))
40: damage to plant, Barnyardgrass (100=total damage to plant; 0=no damage to plant) [7, 16]
20: Barnyardgrass damage rating [7, 14] | Barnyardgrass damage rating (100=total damage to plant; 0=no damage to plant) [7, 15] | damage to plant, Corn (100=total damage to plant; 0=no damage to plant) (corn (Zea mays) [8]; [16]) | damage to plant, Morningglory, Ivy-leaved (100=total damage to plant; 0=no damage to plant) [10, 16]
60%: pest or weed control at 62.5 g/ha ([1]; Echinochloa crus-galli, pre-emergence, 312 h, 62.5 g ai/ha, 100=total damage to plant, 0=no damage to plant, read-out: plant damage rating, Barnyardgrass) | pest or weed control at 250 g/ha ([9]; Setaria faberi, post-emergence, 312 h, 250 g ai/ha, evaluated after 13 days, read-out: damage to plant, Foxtail, Giant (100=total damage to plant; 0=no damage to plant))

Cc1cccc(NC(=O)[C@H]2C(=O)N(C)C[C@@H]2c2ccc(C(F)(F)F)cc2)c1S(C)(=O)=O (racemic) [Compound 1677]
50: Foxtail, Giant damage rating [9, 18]
0: Barnyardgrass damage rating (100=total damage to plant; 0=no damage to plant) ([1]; 15.625 g ai/ha) | Barnyardgrass damage rating [1, 13] | Corn damage rating (100=total damage to plant; 0=no damage to plant) (corn (Zea mays) [2]; 15.625 g ai/ha) | Corn damage rating (corn (Zea mays) [2]; [13]) | Corn damage rating (100=total damage to plant; 0=no damage to plant) (corn (Zea mays) [2]; 250 g ai/ha) | Morningglory, Ivy-leaved damage rating (100=total damage to plant; 0=no damage to plant) ([4]; 15.625 g ai/ha) | Morningglory, Ivy-leaved damage rating [4, 13] | Morningglory, Ivy-leaved damage rating (100=total damage to plant; 0=no damage to plant) ([4]; 250 g ai/ha) | Pigweed, Redroot damage rating (100=total damage to plant; 0=no damage to plant) ([5]; 15.625 g ai/ha) | Pigweed, Redroot damage rating [5, 13] | Pigweed, Redroot damage rating (100=total damage to plant; 0=no damage to plant) ([5]; 250 g ai/ha) | Velvetleaf damage rating (100=total damage to plant; 0=no damage to plant) ([6]; 15.625 g ai/ha) | Velvetleaf damage rating [6, 13] | Velvetleaf damage rating (100=total damage to plant; 0=no damage to plant) ([6]; 250 g ai/ha) | Barnyardgrass damage rating [7, 14] | Corn damage rating (corn (Zea mays) [8]; [14]) | Corn damage rating (corn (Zea mays) [8]; [17]) | Corn damage rating (corn (Zea mays) [8]; [18]) | Morningglory, Ivy-leaved damage rating [10, 14] | Morningglory, Ivy-leaved damage rating [10, 17] | Morningglory, Ivy-leaved damage rating [10, 18] | Pigweed, Redroot damage rating [11, 14] | Pigweed, Redroot damage rating [11, 17] | Pigweed, Redroot damage rating [11, 18] | Velvetleaf damage rating [12, 14] | Velvetleaf damage rating [12, 17] | Velvetleaf damage rating [12, 18]
70: Foxtail, Giant damage rating (100=total damage to plant; 0=no damage to plant) ([3]; 250 g ai/ha)
10: Barnyardgrass damage rating (100=total damage to plant; 0=no damage to plant) ([1]; 250 g ai/ha) | Foxtail, Giant damage rating (100=total damage to plant; 0=no damage to plant) ([3]; 15.625 g ai/ha) | Barnyardgrass damage rating [7, 17] | Barnyardgrass damage rating [7, 18] | Foxtail, Giant damage rating [9, 14]
40: Foxtail, Giant damage rating [3, 13]
30: Foxtail, Giant damage rating [9, 17]
